Experimental data taken from patent publication US6645983B1, “Pharmaceutical compositions comprising 4-quinolones for treating cancers” (Laboratoire L. Lafon, priority 1999, dated 2003).

Legend:
HCT-15 = experiment: MTT test, cytotoxic activity on non-clonogenic cell lines; format: cell-based; conditions: Homo sapiens, 10^−5 M, 72 hours of incubation, control condition = 100%, mean value, read-out: mean optical density as percentage of control, HCT-16
Procedure: (§1) The principle of the MTT test is based on the mitochondrial reduction, by the metabolically active live cells, of the yellow-colored product MTT (3-(4,5-dimethylthiazol-2-yl)-2,5-diphenyltetrazolium bromide) to a blue-colored product, formazan. The amount of formazan thus obtained is directly proportional to the amount of live cells present in the culture well(s). This amount of formazan is measured by spectrophotometry.
(§2) The cell lines are maintained as a monolayer culture at 37° C. in stoppered culture dishes containing MEM 25 MM HEPES (Minimum Essential Medium) base medium. This medium is suited to the growth of a range of various mammalian diploid or primary cells. This medium is then supplemented with:
(§3) The 12 human cancer cell lines which were used were obtained from the American Type Culture Collection (ATCC, Rockville, Md., USA). These 12 cell lines are:
(§4) Experimentally, 100 μl of a cell suspension containing 20 000 to 50 000 (depending on the cell type used) cells/ml of culture medium are inoculated -in 96-well flat-bottomed multi-well plates and are left to stand in an incubator at 37° C., 5% CO2 and 70% humidity. After an incubation time of 24 hours, the culture medium is replaced with 100 μl of fresh medium containing either the various test compounds—at concentrations varying from 10^−5 to 10^−10 M—or the solvent having served for dissolving the products to be tested (control condition). […] The microplates are thus incubated for 3 hours at 37° C., then centrifuged for 10 minutes at 400 g. The yellowish solution of MTT is removed and the blue formazan crystals formed in the cell region are dissolved in 100 μl or DMSO. The microplates are then shaken for 5 minutes. […] Software incorporated in the spectrophotometer calculates the average optical density values and the standard deviation (SD) and standard error of mean (SEM) values.

LoVo = experiment: as above; format: cell-based; conditions: Homo sapiens, 10^−5 M, 72 hours of incubation, control condition = 100%, mean value, read-out: mean optical density as percentage of control, LoVo
Procedure: as §1, §2, §3, §4

PC-3 = experiment: as above; format: cell-based; conditions: Homo sapiens, 10^−5 M, 72 hours of incubation, control condition = 100%, mean value, read-out: mean optical density as percentage of control, PC-3
Procedure: as §1, §2, §3, §4

U-373MG = experiment: as above; format: cell-based; conditions: Homo sapiens, U373 MG; 10^−5 M, 72 hours of incubation, control condition = 100%, mean value; read-out: mean optical density as percentage of control, U-373MG
Procedure: as §1, §2, §3, §4

A549 = experiment: as above; format: cell-based; conditions: Homo sapiens, 10^−5 M, 72 hours of incubation, control condition = 100%, mean value, read-out: mean optical density as percentage of control, A549
Procedure: as §1, §2, §3, §4

MCF7 = experiment: as above; format: cell-based; conditions: Homo sapiens, 10^−5 M, 72 hours of incubation, control condition = 100%, mean value, read-out: mean optical density as percentage of control, MCF7
Procedure: as §1, §2, §3, §4

T-47D = experiment: as above; format: cell-based; conditions: Homo sapiens, T47D; 10^−5 M, 72 hours of incubation, control condition = 100%, mean value; read-out: mean optical density as percentage of control, T-47D
Procedure: as §1, §2, §3, §4

U-87MG = experiment: as above; format: cell-based; conditions: Homo sapiens, U-87 MG; 10^−5 M, 72 hours of incubation, control condition = 100%, mean value; read-out: mean optical density as percentage of control, U-87MG
Procedure: as §1, §2, §3, §4

A-427 = experiment: as above; format: cell-based; conditions: Homo sapiens, 10^−5 M, 72 hours of incubation, control condition = 100%, mean value, read-out: mean optical density as percentage of control, A-427
Procedure: as §1, §2, §3, §4

SW1088 = experiment: as above; format: cell-based; conditions: Homo sapiens, 10^−5 M, 72 hours of incubation, control condition = 100%, mean value, read-out: mean optical density as percentage of control, SW1088
Procedure: as §1, §2, §3
SW1088 (code ATCC: HTB-12) which is an astro-cytoma,
as §4

[1] = Determination of the maximum tolerated dose (MTD); conditions: B6D2F1/Jico, mouse, in vivo, ip; single intraperitoneal administration, doses 2.5 to 160 mg/kg, survival over 14 days
Procedure: The evaluation of the maximum tolerated dose was performed on 4- to 6-week-old B6D2F1/Jico mice. The compounds were administered intraperitoneally at increasing doses ranging from 2.5 to 160 mg/kg. The value of the MTD (expressed in mg/kg) is determined from the observation of the survival rate of the animals over a 14-day period after a single administration of the product under consideration. The change in weight of the animals is also monitored during this period. When the MTD value is greater than 160 mg/kg, the MTD value is considered as being 160 mg/kg by default.

J82 = experiment: MTT test, cytotoxic activity on non-clonogenic cell lines; format: cell-based; conditions: Homo sapiens, 10^−5 M, 72 hours of incubation, control condition = 100%, mean value, read-out: mean optical density as percentage of control, J82
Procedure: as §1, §2, §3
(§5) J82 (code ATCC: HTB-1) and T24 (code ATCC: HTB-4) which are two bladder cancers,
as §4

T24 = experiment: as above; format: cell-based; conditions: Homo sapiens, T-24; 10^−5 M, 72 hours of incubation, control condition = 100%, mean value; read-out: mean optical density as percentage of control, T24
Procedure: as §1, §2, §3, §5, §4

| Structure (SMILES) | viability at 10 µM (HCT-15) | viability at 10 µM (LoVo) | viability at 10 µM (PC-3) | viability at 10 µM (U-373MG) | viability at 10 µM (A549) | viability at 10 µM (MCF7) | viability at 10 µM (T-47D) | viability at 10 µM (U-87MG) | viability at 10 µM (A-427) | viability at 10 µM (SW1088) | MTD at 14 day [1] | viability at 10 µM (J82) | viability at 10 µM (T24) |
| --- | --- | --- | --- | --- | --- | --- | --- | --- | --- | --- | --- | --- | --- |
| CCOC(=O)Cn1cc(-c2ccc(OC)cc2)c(=O)c2c(OC)cc(OC)cc21 [CRL8360, Ethyl 2-[5,7-dimethoxy-3-(4-methoxyphenyl)-4-oxo-1,4-dihydro-1-quinolinyl]acetate] | 91.8% | 98.6% | 81.5% | 88% | 85.6% | 95.3% | 82.1% | 97.6% | 71.3% | 75.1% | > 160 mg/kg | 81.2% | 87.5% |
| COc1ccc(-c2cn(C)c3c(OC)ccc(OC)c3c2=O)cc1 [CRL8371] | 25.2% | 45.6% | 54.2% | 42.8% | 42.9% | 45.6% | 49.3% | 58.7% | 30.8% | 40.8% | 40 mg/kg | 76.3% | 52.2% |
| COc1ccc(-c2cn(CC#N)c3cc(OC)cc(OC)c3c2=O)cc1 [CRL8372, [5,7-Dimethoxy-3-(4-methoxyphenyl)-4-oxo-1,4-dihydro-1-quinolinyl]acetonitrile] | 84.3% | 83.9% | 110% | 94.8% | 93.4% | 96.6% | 65.7% | 92.9% | 93.9% | 98.1% | > 160 mg/kg | 93% | 81.2% |
| COc1ccc(-c2cn(C)c3cc(OC)cc(O)c3c2=O)cc1 [CRL8377, 5-Hydroxy-7-methoxy-3-(4-methoxyphenyl)-1-methyl-1,4-dihydro-4-quinolinone] | 86.6% | 85% | 87.4% | 56.7% | 67% | 104% | 66.9% | 49.5% | 26.5% | 99.8% | > 160 mg/kg | 98.7% | 85% |
| COc1ccc(-c2cn(C)c3ccc(OC)cc3c2=O)cc1 [CRL8378, 6-Methoxy-3-(4-methoxyphenyl)-1-methyl-1,4-dihydro-4-quinolinone] | 105% | 107% | 100% | 98.1% | 91% | 93.5% | 110% | 73% | 72.3% | 108% | > 160 mg/kg | 99.6% | 89.2% |
| COc1ccc2c(c1)c(=O)c(-c1ccccc1)cn2C [CRL8379, 6-Methoxy-1-methyl-3-phenyl-1,4-dihydro-4-quinolinone] | 106% | 102% | 99.2% | 113% | 94% | 91.6% | 99.3% | 95.3% | 94.2% | 98.3% | > 160 mg/kg | 101% | 102% |
